Laboratory results taken from patent US20230322722A1, “MODULATORS OF MYC FAMILY PROTO-ONCOGENE PROTEIN” (Nalo Therapeutics, priority 2020, published 2023).
One block for each compound: values may come before it.

Tests used:
Type in all cases: cell-based
[1] = target: T1, MycN protein (Homo sapiens, UniProt P04198); assay: Degradation of MycN protein, Western blot, SKNBE2 cells (Example 160)
T1 construct: either 2×10^6 of L-363 (human leukemia cell line) or SKNBE2 (neuroblastoma cell line) cells; endogenous in cells; host or cells: SKNBE2 / SK-N-BE(2) neuroblastoma cells
T1 sequence (P04198 1-464): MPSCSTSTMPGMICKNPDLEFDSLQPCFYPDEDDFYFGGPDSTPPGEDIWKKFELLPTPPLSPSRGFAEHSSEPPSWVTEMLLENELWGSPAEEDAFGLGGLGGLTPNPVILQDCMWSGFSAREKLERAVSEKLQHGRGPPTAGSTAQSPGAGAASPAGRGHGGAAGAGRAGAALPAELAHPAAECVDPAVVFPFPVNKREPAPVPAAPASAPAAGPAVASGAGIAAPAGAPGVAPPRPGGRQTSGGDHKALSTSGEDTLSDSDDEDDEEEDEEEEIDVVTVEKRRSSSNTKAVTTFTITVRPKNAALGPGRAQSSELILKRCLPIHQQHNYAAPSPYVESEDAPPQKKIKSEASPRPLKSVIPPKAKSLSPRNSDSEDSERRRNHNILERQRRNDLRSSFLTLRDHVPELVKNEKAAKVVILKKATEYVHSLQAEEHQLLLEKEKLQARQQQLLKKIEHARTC
Method: In a T150 flask was plated either 2×10^6 of L-363 (human leukemia cell line) or SKNBE2 (neuroblastoma cell line) cells in a total of 30 mL containing Roswell Park Memorial Institute (RPMI) 1640 Medium (Thermo Fisher, Cat. #11875-085), 10% Fetal Bovine Serum (FBS, Thermo Fisher: Cat. #10437-028), 1% Penicillin/streptomycin (Thermo Fisher: Cat. #10378016), and 1% Amophotericin B (Thermo Fisher, Cat. #15290026). The cells were split every 72 hours by reseeding the L-363 or SKNBE2 cells, and the passage number was noted. It is noteworthy that cell cultures that were above 40 passages were not used, and most experiments were done with cells of less than 30 passages.
In a 6-well cell culture plate, a total of 3 mL of either 1×10^6 cells/mL of L-363 or SKNBE2 cells were seeded, resulting in a total of 3×10^6 cells per well. To each well containing 3 mL of either L-363 or SKNBE2 cell line was added 6 uL of MycN modulating compound (1 mM) and the resulting plate was shaken from left to right, and not swirled. After 6 hours, the cells were placed in a 15 mL falcon tube and spun at 500 Gs at 4° C. in a swinging bucket centrifuge. The medium was then carefully removed without disturbing the pellet. The pellet was then washed with 3 mLs of chilled phosphate buffered saline (PBS) and subjected to the spin cycle. PBS was then removed and the pellet was lysed in 200 uL of radioimmunoprecipitation (RIPA) lysis buffer (Thermo Fisher: Cat. #899000) that is supplemented with protease and phosphatase inhibitors (Thermo Fisher: Cat. #A32959). The cell lysate was then subjected to spinning in a centrifuge for 10 minutes at 13000 G at 4° C. The supernatant was then carefully transferred to a fresh eppendorf tube without disturbing the pellet (˜180 uL). The protein concentration of the cell lysate was then determined by using a bicinchoninic acid (BCA assay) according to manufacturer's protocol (Thermo Fisher: Cat. #23227).
Cell lysate, approximately 25 ug-30 ug, was loaded per well in a 4-20% polyacrylamide gel (Biorad. Cat. #5671094). After running the dye front off of the gel, the gel was transferred to a nitrocellulose membrane (Biorad: Cat. #1704159) using the transblot turbo system (Biorad: Cat. #1704150) according to manufacturer's protocol. After transferring for 30 minutes, the membrane was blocked with 5% BSA for 1 hour at room temperature. The BSA was then washed off and the primary antibody of choice (1:500) was added, and the membrane was incubated with the primary antibody at 4° C. for overnight. The next morning, the primary antibody was removed and the membrane was washed with 1×-TBST for 10 minutes and repeated three more times. Following the last wash, a secondary antibody (Molecular Devices. Cat. #R8209 or R8208) was added at 1:5000 dilution and incubated for 1 hour at room temperature. Following the incubation with the secondary antibody, the membrane was washed with 1×-TBST for 10 minutes and repeated three more times. Following the last wash, the membrane was washed with de-ionized water twice and dried for at least two hours. Once the membrane is completely dry, the Molecular Devices Spectra Max western system was used to observe the bands. The western image was saved and the band density was measured with ImageJ software.

[2] = target: T2, MycN protein (n-myc) (Homo sapiens, UniProt P04198); assay: Degradation of MycN protein, 24 h treatment, JESS Western, SK-N-BE(2) cells (Example 161); details: SKNBE2 cells
T2 construct: either 2×10^6 of L-363 (human leukemia cell line) or SKNBE2 (neuroblastoma cell line) cells; endogenous in cells; host or cells: SKNBE2 / SK-N-BE(2) neuroblastoma cells
T2 sequence (P04198 1-464): T1 sequence (P04198 1-464)
Method: (§1) For L363 cells (suspension), 1E6 cells were plated into each well of a 6 well plate. For SK-N-BE(2) cells (adherent), 5E5 cells were plated into each well of a 6 well dish. […] All compounds were diluted to 10 mM in DMSO. Cells were treated with the compound for 24 hrs, then for both cell types, media containing cells were removed from wells into a 15 ml centrifuge tube, and remaining adherent SK-N-BE(2) cells were also scraped from the wells into the appropriate tubes. Tubes were centrifuged, cells were washed with PBS then re-centrifuged to pellet cells. A RIPA buffer cocktail was added to the cells on ice for 5 mins. Cell lysates were clarified by centrifugation and stored at −80 degrees until required. BCA assay was performed on each lysate to determine the protein concentration.
(§2) For validation studies of antibodies, lysates and antibodies were used at a number of concentrations (Lysates: 2, 1, 0.2 mg/ml; Antibodies: 1 in 50, 1 in 200 dilution). Once an appropriate lysate concentration and antibody concentration was determined, samples were screened in the JESS technology (Protein Simple, San Jose, CA—https://www.proteinsimple.com/jess.html).
(§3) Target protein antibodies (n-myc and c-myc) were detected in the chemi-luminescence channel and loading controls (tubulin and GAPDH) were detected using a Near Infra Red (NIR) labeled secondary antibody.
(§4) For SK-N-EB2 adherent cells, 5E5 cells in 1.9 mls media were plated into 6 well dishes and incubated for 24 hrs. […] Cells were scrapped off the plate, centrifuged, washed with PBS, centrifuged, then a RIPA buffer cocktail added to the cells (100 ul), centrifuged and stored at −80 for later analysis. For L363 suspension cells, 1E6 cells were plated into […] (950 ul media) and incubated for 24 hrs. […] Cells were aspirated into tubes, centrifuged, washed with PBS, centrifuged, then a RIPA buffer cocktail added to the cells (100 ul), centrifuged and stored at −80 for later analysis.
(§5) For Western blot, a BCA (total protein) assay was run on all samples, these were then run in batches of 5 compounds plus control (DMSO) on each Western blot run—n-myc and c-myc were run in separate experiments in the chemiluminescence channel. Both tubulin and GAPDH were run as loading controls in all lanes in the near infra red channel.

[3] = target: T3, MycC protein (c-myc) (Homo sapiens, UniProt P01106); assay: Degradation of MycC protein, 24 h treatment, JESS Western, L363 cells (Example 161); details: L-363 cells
T3 construct: either 2×10^6 of L-363 (human leukemia cell line) cells; endogenous in cells; host or cells: L-363 / L363 human leukemia cells
Method: as §1, §2, §3, §4, §5

T3 sequence (P01106 whole entry): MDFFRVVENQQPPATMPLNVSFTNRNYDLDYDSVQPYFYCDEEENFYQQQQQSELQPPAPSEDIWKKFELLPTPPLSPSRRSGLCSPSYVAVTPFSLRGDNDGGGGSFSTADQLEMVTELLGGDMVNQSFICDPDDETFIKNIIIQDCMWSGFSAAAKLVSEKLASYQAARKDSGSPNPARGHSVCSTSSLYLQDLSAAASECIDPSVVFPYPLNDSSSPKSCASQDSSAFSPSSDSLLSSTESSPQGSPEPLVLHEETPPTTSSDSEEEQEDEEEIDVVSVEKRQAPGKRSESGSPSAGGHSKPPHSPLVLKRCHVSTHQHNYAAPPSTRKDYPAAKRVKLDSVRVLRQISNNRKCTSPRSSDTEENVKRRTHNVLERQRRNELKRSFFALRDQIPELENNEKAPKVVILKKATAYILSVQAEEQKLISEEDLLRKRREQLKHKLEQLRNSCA

Compound: CN(c1nccc(Nc2cc(C3CC3)[nH]n2)n1)[C@H]1CC[C@H](NC(=O)Cc2cccc(C(F)(F)F)c2)CC1 [Compound 104, N-((1R,4R)-4-((4-((5-cyclopropyl-1H-pyrazol-3-yl)amino)pyrimidin-2-yl)(methyl)amino)cyclohexyl)-2-(3-(trifluoromethyl)phenyl)acetamide]
- inhibition at 2 µM ([1]; SKNBE2, 6 h): 20 to 49%

Compound: CN(c1nccc(Nc2cc(C3CC3)[nH]n2)n1)[C@H]1CC[C@H](NC(=O)N2Cc3ccccc3C2)CC1 [Compound 11, N-((1R,4R)-4-((4-((5-cyclopropyl-1H-pyrazol-3-yl)amino)pyrimidin-2-yl)(methyl)amino)cyclohexyl)isoindoline-2-carboxamide]
- inhibition at 2 µM ([1]; SKNBE2, 6 h): 50 to 79%

Compound: CN(c1nccc(Nc2cc(C3CCCC3)[nH]n2)n1)[C@H]1CC[C@H](NC(=O)Cc2cccc(C(F)(F)F)c2)CC1 [Compound 103, N-((1R,4R)-4-((4-((5-cyclopentyl-1H-pyrazol-3-yl)amino)pyrimidin-2-yl)(methyl)amino)cyclohexyl)-2-(3-(trifluoromethyl)phenyl)acetamide]
- inhibition at 2 µM ([1]; SKNBE2, 6 h): 50 to 79%

Compound: CN(c1nccc(Nc2cc(C3CC3)[nH]n2)n1)C1CC2(C1)CN(S(=O)(=O)c1cn3c(n1)CCCC3)C2 [Compound 36, N4-(5-Cyclopropyl-1H-pyrazol-3-yl)-N2-methyl-N2-(2-((5,6,7,8-tetrahydroimidazo[1,2-a]pyridin-2-yl)sulfonyl)-2-azaspiro[3.3]heptan-6-yl)pyrimidine-2,4-diamine]
- inhibition at 1 µM [2]: < 20%
- inhibition at 3 µM [2]: < 20%
- inhibition at 6 µM [2]: < 20%

Compound: CN(c1nccc(Nc2cc(C3CCCC3)[nH]n2)n1)C1CCC(CC(=O)NC2Cc3ccc(C#N)cc3C2)CC1 (stereo not drawn) [Compound 102, N-(5-cyano-2,3-dihydro-1H-inden-2-yl)-2-(4-((4-((5-cyclopentyl-1H-pyrazol-3-yl)amino)pyrimidin-2-yl)(methyl)amino)cyclohexyl)acetamide]
- inhibition at 2 µM ([1]; 6 h): 80 to 100%

Compound: CN(c1nccc(Nc2cc(C3CC3)[nH]n2)n1)[C@H]1CC[C@H](NC(=O)C2Cc3ccccc3C2)CC1 [Compound 101, N-((1R,4R)-4-((4-((5-cyclopropyl-1H-pyrazol-3-yl)amino)pyrimidin-2-yl)(methyl)amino)cyclohexyl)-2,3-dihydro-1H-indene-2-carboxamide]
- inhibition at 2 µM ([1]; SKNBE2, 6 h): 50 to 79%

Compound: COCCOCCN1CC2(CC(N(C)c3nccc(Nc4cc(C5CC5)[nH]n4)n3)C2)C1 [Compound 22, N4-(5-Cyclopropyl-1H-pyrazol-3-yl)-N2-(2-(2-(2-methoxyethoxy)ethyl)-2-azaspiro[3.3]heptan-6-yl)-N2-methylpyrimidine-2,4-diamine]
- inhibition at 0.5 µM ([2]; 0.5 μM): < 20%
- inhibition at 1 µM [2]: 20 to 49%
- inhibition at 3 µM [2]: 20 to 49%
- inhibition at 6 µM [2]: 20 to 49%

Compound: CN(c1nccc(Nc2cc(C3CC3)[nH]n2)n1)C1CC2(C1)CN(CC(=O)Nc1ccc(S(C)(=O)=O)cc1)C2 [Compound 24, 2-(6-((4-((5-Cyclopropyl-1H-pyrazol-3-yl)amino)pyrimidin-2-yl)(methyl)amino)-2-azaspiro[3.3]heptan-2-yl)-N-(4-(methylsulfonyl)phenyl)acetamide]
- inhibition at 6 µM [3]: 80 to 100%

Compound: CN1CCN(C(=O)CN2CC3(CC(N(C)c4nccc(Nc5cc(C6CC6)[nH]n5)n4)C3)C2)CC1 [Compound 30, 2-(6-((4-((5-Cyclopropyl-1H-pyrazol-3-yl)amino)pyrimidin-2-yl)(methyl)amino)-2-azaspiro[3.3]heptan-2-yl)-1-(4-methylpiperazin-1-yl)ethan-1-one]
- inhibition at 0.5 µM ([3]; 0.5 μM): 20 to 49%
- inhibition at 1 µM ([3]; 1 μM): 20 to 49%
- inhibition at 3 µM ([3]; 3 μM): < 20%
- inhibition at 6 µM [3]: < 20%

Now from value to compound:

- inhibition at 2 µM ([1]; SKNBE2, 6 h): 20 to 49%
Compound: CN(c1nccc(Nc2cc(C3CCCC3)[nH]n2)n1)[C@H]1CC[C@H](NC(=O)CC2Cc3ccccc3C2)CC1 [Compound 106, N-((1R,4R)-4-((4-((5-cyclopentyl-1H-pyrazol-3-yl)amino)pyrimidin-2-yl)(methyl)amino)cyclohexyl)-2-(2,3-dihydro-1H-inden-2-yl)acetamide]

- inhibition at 2 µM ([1]; SKNBE2, 6 h): 50 to 79%
Compound: CN(c1nccc(Nc2cc(C3CCCC3)[nH]n2)n1)[C@H]1CC[C@H](NC(=O)C2Cc3ccccc3C2)CC1 [Compound 105, N-((1R,4R)-4-((4-((5-cyclopentyl-1H-pyrazol-3-yl)amino)pyrimidin-2-yl)(methyl)amino)cyclohexyl)-2,3-dihydro-1H-indene-2-carboxamide]

- inhibition at 2 µM ([1]; SKNBE2, 6 h): 50 to 79%
Compound: CN(c1nccc(Nc2cc(C3CC3)[nH]n2)n1)[C@H]1CC[C@H](NC(=O)c2cccc(C(F)(F)F)c2)CC1 [Compound 107, N-((1R,4R)-4-((4-((5-cyclopropyl-1H-pyrazol-3-yl)amino)pyrimidin-2-yl)(methyl)amino)cyclohexyl)-3-(trifluoromethyl)benzamide]

- inhibition at 2 µM ([1]; SKNBE2, 6 h): 50 to 79%
Compound: CN(c1nccc(Nc2cc(C3CC3)[nH]n2)n1)[C@H]1CC[C@H](NC(=O)Cc2cccc(C#N)c2)CC1 [Compound 114, 2-(3-cyanophenyl)-N-((1R,4R)-4-((4-((5-cyclopropyl-1H-pyrazol-3-yl)amino)pyrimidin-2-yl)(methyl)amino)cyclohexyl)acetamide]
